Results reported in US20090017038A1, “Sigma-2 Receptor, Method of Screening of Specific Ligands and Use of the Same in Diagnostic or Therapeutic Methods” (priority 2006, published 2009).

How the values were obtained:
[1] = target: T1, sigma-2 receptor (Homo sapiens, UniProt Q5BJF2); conditions: literature (Perrone 2000; Berardi 1996); cited from earlier work
[2] = target: T1, sigma-2 receptor; conditions: literature (Perrone 2000; Berardi 1996); cited from earlier work; remark: listed apart in the source
[3] = test system: sigma-2 receptor (affinity chromatography-eluted proteins from SK-N-SH membranes); experiment: saturation binding analysis with [3H]-DTG on affinity column-eluted proteins; parameters: species or system human; conditions: [3H]-DTG saturation, FIG. 2A
Experimental: The samples, containing 400 μg of protein, radioligand, 10 μM of unlabeled DTG to determine nonspecific binding, and 1 μM of (+)-pentazocine to mask the sigma-1 receptors, were brought to equilibrium Into a final volume of 500 μL 50 mM Tris-HCl at pH 8.0 for 120 min at 25° C. At equilibrium, 5 mL buffer (50 mM Tris-HCl, pH 7.4) were added. Samples were filtered on GF/C membranes, acclimatized in 0.5% PEI for 30 min prior to use. Filters were washed twice with the buffer (5 mL). Radioactivity count was performed on a LS-6500 Beckman Scintillation Counter.

[4] = target: T1, sigma-2 receptor; experiment: sigma-2 receptor affinity; format: binding
[5] = target: T1, sigma-2 receptor; experiment: sigma-2 receptor activity
[6] = test system: neuroblastoma or glioma tumour cells; experiment: cytotoxicity assay (LDH level); format: cell-based
Experimental: (§1) The antiproliferative assay for compounds was performed by using the MTT assay (Mossman et al. 1983, J. Immunol. Methods 65, pp 55-63). The cytotoxicity assay was performed by measuring the LDH level as reported by Vilner and Bowen 2000, J. Pharmacol. Exp. Ther. 292, pp 408-413. The detailed experimental part is reported in Colabufo et al. 2004, Naunyn Schmiedeberg's Arch. Pharmacol. 370, pp. 106-113.

[7] = test system: neuroblastoma or glioma tumour cells; experiment: antiproliferative assay (MTT); format: cell-based
Experimental: as §1

[8] = target: mixture of the affinity column-eluted histone proteins (sigma-2 receptor); experiment: competition binding assay with [3H]-DTG on mixture of affinity column-eluted histone proteins; parameters: species or system human; conditions: 20 mcg histone proteins, radioligand [3H]-DTG
Experimental: The formation of a complex was highlighted through an assay in which the histone proteins were suspended in 50 mM Tris pH 8.0. […] At equilibrium, determined by the above-mentioned kinetic studies, the histone/radioligand complex was separated after 120 min by filtration on glass fiber (GF/C) membranes, and quantification of the same was performed by radioactivity count.
The sample was incubated for 120 min at 25° C., then the histone/radioligand complex was rapidly filtered on ø 25 mm GF/C membranes. The filter was washed twice with 3 mL buffer. Scintillation liquid was added and a radioactivity reading was performed. The displacement rate was calculated as difference (%) with respect to the specific binding measures by using 10 μM of DTG.

T1 sequence (Q5BJF2 whole entry, species assumed): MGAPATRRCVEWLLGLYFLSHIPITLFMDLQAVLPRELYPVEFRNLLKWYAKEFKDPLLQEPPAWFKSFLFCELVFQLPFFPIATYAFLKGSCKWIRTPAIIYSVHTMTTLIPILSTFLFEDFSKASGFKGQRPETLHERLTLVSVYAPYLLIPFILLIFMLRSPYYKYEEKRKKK

For COc1cccc2c1CCCC2CCCN1CCN(C2CCCCC2)CC1 (centres unmarked) [PB28], the “affinity for sigma-2 receptor” value [1] is given as “high affinity” and the “agonist activity at sigma-2 receptor” value [2] is given as “potent agonist activity”.
In the case of Cc1ccccc1N=C(N)Nc1ccccc1C [[^3H]-DTG], the Bmax [3] is reported as 588±50 fmol/mg of protein.
In the case of COc1ccc(N)c2c1CCCC2CCCN1CCN(C2CCCCC2)CC1 (centres unmarked) [compound 2, 1-cyclohexyl-4-[3-(8-amino-5-methoxy-1,2,3,4-tetrahydronaphtalen-1-yl)propyl]piperazine], the “affinity of amino-substituted ligand relative to PB28” value [4] is reported as “unmodified” and the “sigma-2 activity of amino-substituted ligand relative to PB28” value [5] is reported as “unmodified”.
With COc1ccccc1[C@H]1CC[C@H](N2CCN(C3CCCCC3)CC2)CC1 [trans-1-cyclohexyl-4-[4-(2-methoxy-phenyl)cyclohexyl]piperazine] the cytotoxic activity [6] was “homogeneous to results reported in literature for the best ligand known to date: the compound PB28”, the antiproliferative activity [7] was “homogeneous to results reported in literature for the best ligand known to date: the compound PB28” and the Ki [8] was 0.068 nM.
